The first assay deals with T1, human capsaicin receptor (Homo sapiens, UniProt Q8NER1).
T1 construct: pBK-CMV expression construct encoding the full length human capsaicin receptor; expressed in transfected cells
T1 sequence (Q8NER1 whole entry): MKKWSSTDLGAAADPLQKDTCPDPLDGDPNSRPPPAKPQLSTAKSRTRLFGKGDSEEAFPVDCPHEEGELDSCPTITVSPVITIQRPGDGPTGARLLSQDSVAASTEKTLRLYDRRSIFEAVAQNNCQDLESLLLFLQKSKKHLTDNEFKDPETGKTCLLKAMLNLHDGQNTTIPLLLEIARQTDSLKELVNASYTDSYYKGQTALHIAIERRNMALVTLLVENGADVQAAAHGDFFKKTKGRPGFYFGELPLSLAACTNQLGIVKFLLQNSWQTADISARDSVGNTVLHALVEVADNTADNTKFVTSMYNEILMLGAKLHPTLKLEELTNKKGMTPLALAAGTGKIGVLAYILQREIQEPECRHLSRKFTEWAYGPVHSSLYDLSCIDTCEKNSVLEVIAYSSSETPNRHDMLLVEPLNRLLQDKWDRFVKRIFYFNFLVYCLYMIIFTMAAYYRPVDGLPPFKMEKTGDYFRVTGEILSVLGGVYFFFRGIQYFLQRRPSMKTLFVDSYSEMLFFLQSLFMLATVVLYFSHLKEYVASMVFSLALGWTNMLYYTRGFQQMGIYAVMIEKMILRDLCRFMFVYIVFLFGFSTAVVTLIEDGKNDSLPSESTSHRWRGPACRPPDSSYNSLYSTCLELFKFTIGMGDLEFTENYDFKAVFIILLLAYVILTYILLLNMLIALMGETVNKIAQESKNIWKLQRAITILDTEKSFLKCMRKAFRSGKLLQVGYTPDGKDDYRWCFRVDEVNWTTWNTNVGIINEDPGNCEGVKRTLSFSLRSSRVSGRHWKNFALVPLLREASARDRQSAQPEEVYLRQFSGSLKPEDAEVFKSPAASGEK
The assay can be described thus: Calcium mobilization assay, determination of antagonist activity (Example 6). The assay is classed as cell-based. The conditions noted are these: Table II; IC50 determined as described in Example 6. The protocol: A cDNA encoding full length human capsaicin receptor (SEQ ID NO: 1, 2 or 3 of U.S. Pat. No. 6,482,611) was subcloned in the plasmid pBK-CMV (Stratagene, La Jolla, Calif.) for recombinant expression in mammalian cells.
Human embryonic kidney (HEK293) cells were transfected with the pBK-CMV expression construct encoding the full length human capsaicin receptor using standard methods. The transfected cells were selected for two weeks in media containing G418 (400 μg/ml) to obtain a pool of stably transfected cells. Independent clones were isolated from this pool by limiting dilution to obtain clonal stable cell lines for use in subsequent experiments.
This Example illustrates representative calcium mobilization assays for use in evaluating test compounds for agonist and antagonist activity.
Cells transfected with expression plasmids (as described in Example 4) and thereby expressing human capsaicin receptor are seeded and grown to 70-90% confluency in FALCON black-walled, clear-bottomed 96-well plates (#3904, BECTON-DICKINSON, Franklin Lakes, N.J.). The culture medium is emptied from the 96 well plates and FLUO-3 AM calcium sensitive dye (Molecular Probes, Eugene, Oreg.) is added to each well (dye solution: 1 mg FLUO-3 AM, 440 μL DMSO and 440 pi 20% pluronic acid in DMSO, diluted 1:250 in Krebs-Ringer HEPES (KRH) buffer (25 mM HEPES, 5 mM KCl, 0.96 mM NaH2PO4, 1 mM MgSO4, 2 mM CaCl2, 5 mM glucose, 1 mM probenecid, pH 7.4), 50 μl diluted solution per well). Plates are covered with aluminum foil and incubated at 37° C. for 1-2 hours in an environment containing 5% CO2. After the incubation, the dye is emptied from the plates, and the cells are washed once with KRH buffer, and resuspended in KRH buffer.
To measure the ability of a test compound to agonize or antagonize a calcium mobilization response in cells expressing capsaicin receptors to capsaicin or other vanilloid agonist, the EC50 of the agonist capsaicin is first determined. An additional 20 μl of KRH buffer and 1 μl DMSO is added to each well of cells, prepared as described above. 100 μl capsaicin in KRH buffer is automatically transferred by the FLIPR instrument to each well. Capsaicin-induced calcium mobilization is monitored using either FLUOROSKAN ASCENT (Labsystems; Franklin, Mass.) or FLIPR (fluorometric imaging plate reader system; Molecular Devices, Sunnyvale, Calif.) instruments. Data obtained between 30 and 60 seconds after agonist application are used to generate an 8-point concentration response curve, with final capsaicin concentrations of 1 nM to 3 μM. KALEIDAGRAPH software (Synergy Software, Reading, Pa.) is used to fit the data to the equation: y=a*(1/(1+(b/x)^c)) to determine the 50% excitatory concentration (EC50) for the response. In this equation, y is the maximum fluorescence signal, x is the concentration of the agonist or antagonist (in this case, capsaicin), a is the Emax, b corresponds to the EC50 value and c is the Hill coefficient. Determination of Agonist Activity
Test compounds are dissolved in DMSO, diluted in 20 μl KRH buffer so that the final concentration of test compounds in the assay well is between 1 μM and 5 μM, and added to cells prepared as described above. The 96 well plates containing prepared cells and test compounds are incubated in the dark, at room temperature for 0.5 to 6 hours. It is important that the incubation not continue beyond 6 hours. Just prior to determining the fluorescence response, 100 pi capsaicin in KRH buffer at twice the EC50 concentration determined as described above is automatically added by the FLIPR instrument to each well of the 96 well plate for a final sample volume of 200 μl and a final capsaicin concentration equal to the EC50. The final concentration of test compounds in the assay wells is between 1 μM and 5 μM. […]
(Calcium assays in cells follow changes in intracellular calcium, usually with a dye or a luminescent sensor.)
What is called IC50 is the concentration that inhibits the measured activity by half. On to `COc1cccc(-c2cc(N3CCN(c4ncccc4Cl)C[C@H]3C)nc(N3CCOCC3)n2)c1` [Example 526, 4-[4-[(2R)-4-(3-chloropyridin-2-yl)-2-methylpiperazin-1-yl]-6-(3-methoxyphenyl)pyrimidin-2-yl]morpholine], for which the IC50 is at most 1 µM.

In the case of `Fc1ccc(-c2cc(N3CCN(c4ncccc4C(F)(F)F)CC3)nc(O[C@H]3CCOC3)n2)cc1Cl` [Example 545, 4-(3-chloro-4-fluorophenyl)-2-[(3S)-tetrahydrofuran-3-yloxy]-6-{4-[3-(trifluoromethyl)pyridin-2-yl]piperazin-1-yl}pyrimidine], the half-maximal inhibitory concentration (IC50) is at most 1 µM.

For the compound `Fc1ccc(-c2cc(N3CCN(c4ncccc4C(F)(F)F)CC3)nc(OCC3CCNC3)n2)cc1Cl` (stereo not shown) [Example 560, 4-(3-chloro-4-fluorophenyl)-2-(pyrrolidin-3-ylmethoxy)-6-{4-(3-(trifluoromethyl)pyridin-2-yl]piperazin-1-yl}pyrimidine], the half-inhibitory concentration (IC50) was at most 1 µM.

`c1ccc(N2CCN(c3nc(-c4cccc5c4oc4ccccc45)nc(N4CCOCC4)n3)CC2)nc1` [Example 432, 2-dibenzo[b,d]furan-4-yl-4-morpholin-4-yl-6-(4-pyridin-2-ylpiperazin-1-yl)-1,3,5-triazine]: the IC50 is at most 1 µM.

The same assay, now with this note: Table II; IC50 determined as described in Example 6 (antagonist activity, calcium mobilization).
`C[C@@H]1CN(c2ccccc2F)CCN1c1cc(-c2ccc(F)c(Cl)c2)nc(N2CCC[C@@H]2C)n1` [Example 989, 4-(3-chloro-4-fluorophenyl)-6-[(2R)-4-(2-fluorophenyl)-2-methylpiperazin-1-yl]-2-[(2S)-2-methylpyrrolidin-1-yl]pyrimidlne]: the IC50 was at most 1 µM.

Staying with this assay, now noted: Table II; determined as described in Example 6 (antagonist activity); "*" = 1 micromolar or less.
As for `CC1CCCN1c1nc(-c2ccc(F)cc2)cc(N2CCN(c3ncccc3C(F)(F)F)C[C@H]2C)n1` (stereo partly drawn) [Example 783, 4-(4-fluorophenyl)-2-(2-methylpyrrolidin-1-yl)-6-{(2R)-2-methyl-4-[3-(trifluoromethyl)pyridin-2-yl]piperazin-1-yl}pyrimidine], the IC50 was at most 1 µM.

For `C[C@@H]1CN(c2ncccc2Cl)CCN1c1cc(-c2ccc(F)c(F)c2)nc(N2CCC[C@H]2C)n1` [Example 925, 4-[(2R)-4-(3-chloropyridin-2-yl)-2-methylpiperazin-1-yl]-6-(3,4-difluorophenyl)-2-[(2R)-2-methylpyrrolidin-1-yl]pyrimidine], the IC50 is at most 1 µM.

As for `Cc1ccc(-c2cc(N3CCN(c4ncccc4Cl)C[C@H]3C)nc(N3CCCC3)n2)cc1C` [Example 805, 4-[(2R)-4-(3-chloropyridin-2-yl)-2-methylpiperazin-1-yl]-6-(3,4-dimethylphenyl)-2-pyrrolidin-1-ylpyrimidine], the IC50 was at most 1 µM.

As to `CN(C)/C=C\C(=O)c1nc(-c2ccc(F)c(F)c2)cc(N2CCN(c3ncccc3C(F)(F)F)CC2)n1` [Example 878, (2Z)-1-(4-(3,4-difluorophenyl)-6-{4-[3-(trifluoromethyl)pyridin-2-yl]piperazin-1-yl}pyrimidin-2-yl)-3-(dimethylamino)prop-2-en-1-one], the IC50 was at most 1 µM.

As to `Cc1cc(O)cnc1N1CCN(c2cc(-c3ccc(F)c(Cl)c3)nc(N3CCCC3C)n2)CC1` (stereo not shown) [Example 815, 6-{4-[6-(3-chloro-4-fluorophenyl)-2-(2-methylpyrrolidin-1-yl)pyrimidin-4-yl]piperazin-1-yl}-5-methylpyridin-3-ol], the IC50 is at most 1 µM.

Consider `CCCN1CCN(c2nc(-c3ccc(F)c(Cl)c3)cc(N3CCN(c4ncccc4C(F)(F)F)CC3)n2)C(=O)C1` [Example 885, 1-(4-(3-chloro-4-fluorophenyl)-6-{4-[3-(trifluoromethyl)pyridin-2-yl]piperazin-1-yl}pyrimidin-2-yl)-4-propylpiperazin-2-one], for which the 50% inhibitory concentration (IC50) was at most 1 µM.

Regarding `C[C@@H]1CCCN1c1cc(-c2ccc(F)c(F)c2)nc(N2CCN(c3ncccc3Cl)C[C@@H]2C)n1` [Example 949, 2-[(2S)-4-(3-chloropyridin-2-yl)-2-methylpiperazin-1-yl]-4-(3,4-difluorophenyl)-6-[(2R)-2-methylpyrrolidin-1-yl]pyrimidine], the half-maximal inhibitory concentration (IC50) was at most 1 µM.

With `CC(=O)c1cccc(-c2cc(N3CCN(c4ncccc4Cl)C[C@H]3C)nc(N3CCCC3C)n2)c1` (stereo in doubt) [Example 888, 1-{3-[6-[4-(3-chloropyridin-2-yl)-2-methylpiperazin-1-yl]-2-(2-methylpyrrolidin-1-yl)pyrimidin-4-yl]phenyl}ethanone], the IC50 was at most 1 µM.

The assay is the same for the next values; noted with them: determined as described in Example 6 (calcium mobilization, antagonist activity); Table II.
With `CNC(=O)C1CCN(c2nc(-c3ccc(F)c(Cl)c3)cc(N3CCN(c4ncccc4C(F)(F)F)CC3)n2)CC1` [Example 653, 1-(4-(3-chloro-4-fluorophenyl)-6-{4-[3-(trifluoromethyl)pyridin-2-yl]piperazin-1-yl}pyrimidin-2-yl)-N-methylpiperidine-4-carboxamide], the IC50 is at most 1 µM.

`CCN1CCN(c2nc(-c3ccc(F)c(C)c3)cc(N3CCN(c4ncccc4C(F)(F)F)CC3)n2)CC1` [Example 667, 2-(4-ethylpiperazin-1-yl)-4-(4-fluoro-3-methylphenyl)-6-{4-[3-(trifluoromethyl)pyridin-2-yl]piperazin-1-yl}pyrimidine]: the IC50 is at most 1 µM.

With `CN(C)C(=O)CN1CCN(c2nc(-c3ccc(F)c(Cl)c3)cc(N3CCN(c4ncccc4C(F)(F)F)CC3)n2)CC1` [Example 652, 2-[4-(4-(3-chloro-4-fluorophenyl)-6-{4-[3-(trifluoromethyl)pyridin-2 yl]piperazin-1-yl}pyrimidin-2-yl)piperazin-1-yl]-N,N-dimethylacetamide], the IC50 was at most 1 µM.

Take `CC1(C)CN(c2nc(-c3ccc(F)c(Cl)c3)cc(N3CCN(c4ncccc4C(F)(F)F)CC3)n2)CCO1` [Example 636, 4-(4-(3-chloro-4-fluorophenyl)-6-{4-[3-(trifluoromethyl)pyridin-2-yl]piperazin-1-yl}pyrimidin-2-yl)-2,2-dimethylmorpholine]: the concentration for half-maximal inhibition (IC50) is at most 1 µM.

As to `Cc1cc(-c2cc(N3CCN(c4ncccc4C(F)(F)F)CC3)nc(N3CCNC(C)C3)n2)ccc1F` (stereo not shown) [Example 641, 4-(4-fluoro-3-methylphenyl)-2-(3-methylpiperazin-1-yl)-6-{4-[3-(trifluoromethyl)pyridin-2-yl]piperazin-1-yl}pyrimidine], the IC50 is at most 1 µM.

For the compound `Cc1cccnc1-c1nc(-c2ccc(F)c(Cl)c2)cc(N2CCN(c3ncccc3C(F)(F)F)CC2)n1` [Example 616, 4-(3-chloro-4-fluorophenyl)-2-(3-methylpyridin-2-yl)-6-{4-[3-(trifluoromethyl)pyridin-2-yl]piperazin-1-yl}pyrimidine], the IC50 was at most 1 µM.

For `C[C@@H]1CN(c2ncccc2Cl)CCN1c1cc(-c2ccc(F)c(Cl)c2)nc(SCc2ccccc2)n1` [Example 722, 2-(benzylthio)-4-(3-chloro-4-fluorophenyl)-6-[(2R)-4-(3-chloropyridin-2-yl)-2-methylpiperazin-1-yl]pyrimidine], the IC50 is at most 1 µM.

With `Cc1cc(-c2cc(N3CCN(c4ncccc4Cl)CC3)nc(N3CCOC(C)(C)C3)n2)ccc1F` [Example 743, 4-{4-[4-(3-chloropyridin-2-yl)piperazin-1-yl]-6-(4-fluoro-3-methylphenyl)pyrimidin-2-yl]-2,2-dimethylmorpholine], the IC50 is at most 1 µM.

Consider `CC(C)c1cc(-c2cc(N3CCN(c4ncccc4C(F)(F)F)CC3)nc(N3CCOCC3)n2)ccn1` [Example 592, 4-(4-(2-isopropylpyridin-4-yl)-6-{4-[3-(trifluoromethyl)pyridin-2-yl]piperazin-1-yl}pyrimidin-2-yl)morpholine], for which the concentration for half-maximal inhibition (IC50) was at most 1 µM.
